Data from US20250186403A1 (ARIZONA BOARD OF REGENTS ON BEHALF OF THE UNIVERSITY OF …, priority 2022, published 2025).
Values joined by “and” are separate entries in the source; they are usually repeats but may differ in a detail not shown here. Equal values may be shown once. Read-outs that look alike come from different tables or passages of the source.

Legend:
C. amylolentus = assay: MIC by microdilution method; assay type: cell-based
Experimental: (§1) Serial double dilution of the CMN was done in the RPMI-MOPS medium. Freshly grown fungal culture from the SD agar plate was resuspended in sterile water and diluted to get 0.1 OD at 600 nm. […] The plates were incubated at 30° C. for 48 h. Plates were checked for growth by visual observation. For Afu, resazurin was added to 44 µM and incubated for 12 h at 37° C. before noting a change in color from blue to pink by live cells. MIC is defined as the minimum concentration at which there is no growth when observed visually.

C. gattii (NIH444) = assay: MIC by microdilution method; assay type: cell-based; conditions: Cryptococcus gattii, visual, 48 h, 30° C.
Experimental: as §1

[1] = test system: C. neoformans (Cne-Mut), inteinless mutant strain; assay: MIC by microdilution method; assay type: cell-based; conditions: Cryptococcus neoformans, 48 h
Experimental: as §1

C. neoformans (Cne-WT) = assay: MIC by microdilution method; assay type: cell-based; conditions: Cryptococcus neoformans, 48 h
Experimental: as §1

[2] = test system: Cga split-cfGFP-Prp8 intein protein; assay: Split GFP-Prp8 intein splicing assay (SDS-PAGE); assay type: biochemical, Cryptococcus gattii; conditions: vs DMSO control, 30 μM protein, 24 h
Experimental: TCEP is added to a final concentration of 100 µM and incubated for 24 h. The substrate Nano-Glo luciferase (Promega) was added, and the resulting luminescence was read. IC50 was calculated using GraphPad prism. […] TCEP was added to a concentration of 1 mM and incubated for 24 h. From this reaction mixture, 10 μl was mixed with an equal volume of 2×SDA-PAGE loading dye and loaded onto 12% SDS-PAGE gel without boiling the sample. The gel was scanned with UV using Chemidoc (Bio Rad), and band intensities were quantified using Image Lab software. […] Cells were harvested and washed in PBS, lysed with bead lyser, and centrifuged at 10,000 rpm. An equal quantity of protein (50 μg) from each treatment was loaded onto 12% SDS-PAGE and blotted onto the NC membrane, blocked with 5% skimmed milk. The membrane was probed with anti-prp8 intein rabbit polyclonal sera, followed by goat anti-rabbit HRP antibody. Signals were developed using a chemiluminescent kit. The density of the spliced intein bands (˜20 kDa) were quantified using Image lab software. A band at ˜130 kDa is uncharacterized, as explained below. NC: nitrocellulose. Abs: absorbance […]
TCEP to a final concentration of 1 mM was added to induce splicing and further incubated at RT for 24 h. […] The band densities were quantified using image lab software.

[3] = molecular target: T1, recombinant Drosophila Hh protein (C-Hh-Y) (Drosophila melanogaster, UniProt Q02936); assay: Hh cholesterolysis assay; assay type: biochemical; conditions: CMN at up to 200 µM, 22 h
T1 construct: His tag (inferred from 'purified similarly', i.e. Ni-NTA); made in house; host or cells: E. coli LMG194
T1 sequence (Q02936 258-471): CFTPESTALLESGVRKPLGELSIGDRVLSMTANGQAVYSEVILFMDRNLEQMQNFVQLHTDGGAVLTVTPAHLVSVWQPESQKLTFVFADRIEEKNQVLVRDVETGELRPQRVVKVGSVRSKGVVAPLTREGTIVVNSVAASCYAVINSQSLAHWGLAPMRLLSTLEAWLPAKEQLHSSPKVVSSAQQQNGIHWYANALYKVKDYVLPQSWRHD
Experimental: The Tm values were calculated by Thermal shift software. […] The assay was repeated three times. […]
The hedgehog FRET protein C-Hh-Y was expressed and purified similarly, except that the protein was expressed in E. coli strain LMG194, induced with arabinose at 16° C. overnight, and the purified protein was stored in a storage buffer containing 10% glycerol and 4 mM TCEP.
Hh cholesterolysis assay: Cholesterolysis assay was done as per published methodology with modifications. […] With 50 μl reaction volume, a fixed volume of DMSO or CNM with varying concentrations (final 6.25 to 200 µM) were added and incubated at RT for 30 min. Cholesterolysis was induced by adding 1 μl stock solution of cholesterol in ethanol to each tube to attain a final concentration of 200 µM. After incubating at RT for 22 h, 20 μl of the reaction mixture was mixed with an equal volume of reducing SDS-PAGE loading buffer and loaded onto the 12% SDS-PAGE gel, followed by coomassie blue staining. Gel images were taken using the ChemiDoc imaging system (Bio-Rad). Band densities were analyzed using the Image lab software and compared with Student's t-test using the GraphPad Prism software version 9.1.0.

[4] = Cytotoxicity (Cell Counting Kit-8); assay type: cell-based; conditions: human, A549 cells
Experimental: FIGS. 4A, 4B, and 4C show in vitro and in vivo toxicity. […] A549 and RAW 264.7 cells were grown in 96 well plates till 70% confluent. RAW 264.7 cells were differentiated into macrophages using PMA. […] The cell viability was estimated by Cell Counting Kit-8 (GlpBio, CA, USA), and absorbance was read at 450 nm using microplate reader Synergy H1 (BioTek). CC50 was calculated by GraphPad prism. […] Abs: absorbance. […] Bodyweight and other parameters were monitored daily (Table 3).
Approximately 2×10^4 A549 cells in MEM media with 10% FBS were seeded per well of 96 well plates and incubated at 37° C. to reach 70% confluent. […] The plates were incubated for 48 h before the addition of 10 μl water-soluble […] (Cell counting kit-8, Glpbio Technology) to each well and incubated at 37° C. for 3 h.

CNc1ccc2oc(C[C@H]3O[C@@]4(CC[C@H]3C)O[C@H]([C@H](C)C(=O)c3ccc[nH]3)[C@H](C)C[C@H]4C)nc2c1C(=O)O [CMN, calcimycin]
MIC (C. amylolentus; C. amylolentus, visual, 48 h, 30° C.): > 26.1 µg/mL and > 50 µM
growth inhibition (C. amylolentus; natural inteinless cryptococcal sp. Cam): no inhibition was observed
MIC (C. gattii (NIH444)): 1.5 µg/mL and 3 µM
MIC [1]: 25.1 µg/mL and 48 µM
MIC (C. neoformans (Cne-WT)): 1.5 µg/mL
MIC (C. neoformans (Cne-WT); Cne-WT, visual, 30° C., read-out: MIC): 3 µM
splicing of split GFP-Prp8 intein [2]: inhibited with CMN dose-dependently
density of spliced product, hedgehog cholesterolysis [3]: did not change the density of spliced product
CC50 at 48 h [4]: 16.3 µM and 8.6 µg/mL
